Laboratory results as given in EP3797781A1, “USE OF EC-7072 AND SYNERGIC COMPOSITIONS THEREOF IN TREATMENT OF CHRONIC LYMPHOCYTIC LEUKEMIA” (priority 2019, dated 2021).

Legend:
[1] = tested on: active caspase-3; test: Caspase-3 activity assay in leukemia cells (flow cytometry); assay type: cell-based, human; conditions: 0 - 400 nM, 24 hours; leukemia cells in PBMCs from patients with CLL (n = 6)
Protocol: Intracellular levels of activated caspase-3 were measured by using CaspGLOW™ Fluorescein Active Caspase-3 Staining Kit (Invitrogen). In brief, EC-7072 (200 nM) or DMSO-treated PBMCs from patients with CLL were incubated with FITC-DEVD-fmk for 30 minutes at 37 °c and fluorescence was next analyzed by flow cytometry in leukemia cells. For some experiments, cells were pretreated for 2 hours with the indicated doses of the broad-spectrum caspase inhibitor Z-VAD-fmk.
The induction of caspase-dependent apoptosis on primary CLL cells by EC-7072 was assessed by: • (i) incubating PBMCs isolated from patients with CLL (n = 6) following treatment with increasing concentrations of EC-7072 (0 - 400 nM) for 24 hours. Apoptosis of leukemia cells was evaluated by cytofluorometric assessment of Annexin V/PI staining to obtain percentages of apoptotic [Annexin V^+ PI^-] and dead [PI^+] cells (Figure 3A); • (ii) incubating PBMCs and T cells isolated from patients with CLL (n = 3) following treatment with EC-7072 (200 nM) for 24 hours. T cell apoptosis was evaluated by cytofluorometric assessment of Annexin V/PI staining to obtain percentages of viable [Annexin V-], apoptotic [Annexin V^+ PI^-] and dead [PI^+] cells (Figure 3B); • (iii) incubating PBMCs isolated from patients with CLL (n = 6) following treatment with EC-7072 (0 - 400 nM) for 24 hours. […]

[2] = tested on: isolated T cells from patients with CLL; test: qPCR analysis of BCL2 expression in isolated T cells; assay type: cell-based, human; conditions: 200 nM, 6 hours; n = 3
Protocol: Isolated leukemia cells from patients with CLL were incubated with EC-7072 (200 nM) or DMSO for 6 hours. Total RNA was extracted using RNeasy Mini Kit (Qiagen). 2 µg total RNA were used for cDNA synthesis using High-Capacity cDNA Reverse Transcription Kit (Applied Biosystems). Quantitative RT-PCR was performed using SYBR Green PCR Master Mix (Applied Biosystems) in a 7300 Real-Time PCR System and each sample was analyzed in triplicate. Table 1. Primers used in qPCR
The dysregulation of BCL2 expression in primary CLL by EC-7072 was evaluated by: • (i) incubating isolated CLL cells (n = 6) from patients with CLL following treatment with EC-7072 (200 nM) for 6 hours and extracting total RNA. Relative expression of BLC2 was determined by qPCR to obtain the mean relative expression to the control (DMSO) condition (Figure 6F); • (ii) incubating isolated CLL cells (n = 6) following treatment with 200 nM EC-7072 for 12 and 18 hours. BCL2 levels were evaluated by intracellular flow cytometry (Figure 6G); • (iii) incubating isolated T cells (n = 3) from patients with CLL following treatment with EC-7072 (200 nM) for 6 hours and extracting total RNA. […] T-cell death and apoptosis were assessed by DiOC6(3)/PI staining to obtain percentages of viable [DiOC6(3)^+] cells and the mean percentages of apoptotic [DiOC6(3)^low PI^-] and dead [PI^+] cells.

CO[C@@H]([C@@H]1Cc2cc3cc(O[C@H]4C[C@@H](O[C@H]5C[C@@H](O)[C@H](O)[C@@H](C)O5)[C@H](O)[C@@H](C)O4)c(C)c(O)c3c(O)c2C(=O)[C@H]1O[C@H]1C[C@@H](O[C@H]2C[C@@H](O[C@H]3C[C@](C)(O)[C@H](O)[C@@H](C)O3)[C@@H](O)[C@@H](C)O2)[C@H](O)[C@@H](C)O1)[C@@H](O)C(C)=O [EC-7072, mithramycin SK]
intracellular levels of active caspase-3 [1]: dose-dependent increase
BCL2 expression in T cells [2]: not modulated
